Legend:
[1] = Stability of E6005 and M11 in human dried blood spots; assay type: physicochemical
Experimental: Stability: Following stability of E6005 and M11 in DBS was assessed at low and high concentrations using LQC and HQC samples (three replicates/concentration): bench-top stability for 7 days at room temperature, long-term frozen stability for 160 days […] below −15° C., and processed sample stability for 85 h at 4° C. To investigate impacts of high humidity on the stability, bench-top stability test was performed at room temperature with relative humidity of ca. 80%-84%. Samples were considered stable when % bias from the nominal concentrations was within ±15%.

[2] = Clinical application of DBS assay: blood levels in pediatric trial of E6005 ointment; assay type: in vivo, human; settings: pediatric subjects; E6005 ointment 0.05% or 0.2% twice a day for two weeks; 147 DBS samples
Experimental: Clinical application: A clinical study was performed in which E6005 ointment containing 0.05% or 0.2% was topically applied twice a day for two weeks to pediatric subjects. Blood samples were obtained at 1- and 2-week post-dose as well as subsequent 7-day follow-up period in collection tubes with K2-EDTA as an anticoagulant, thereafter put on ice as soon as possible to reduce possible conversion of E6005 to M11. Details on sample handling at the clinics were clarified in a lab manual; a 25 μL aliquot blood sample was spotted onto the center of circle of DBS cards (four replicates per sample) at clinics, then dried at room temperature for at least 2 h. DBS cards with desiccants were placed in zip lock bags and stored frozen below −20° C. until shipment to a bioanalytical laboratory. Samples were stored below −15° C. at the laboratory until they were subjected to sample processing for the determination of E6005 and M11 concentrations in DBS.

[3] = tested on: pediatric subjects with mild to moderate atopic dermatitis; assay: Phase 2 study in pediatric patients (Example 6), safety (adverse events); assay type: in vivo, human
Source text: Safety Endpoint: Frequency and severity of adverse events (AE; local and systemic).
Analysis Populations: All subjects enrolled in the study who had at least one application of investigational product were included in the Safety Set (SS). This was the population for the safety analyses.
Safety Analyses: The number and proportion of subjects with AEs were summarized by treatment, system organ classification, and preferred term for all adverse events, all adverse events considered by the investigator to be related to study drug, all serious adverse events (SAE), all Common Terminology Criteria for Adverse Events (CTCAE) Grade 3 or higher AEs, and all adverse events leading to study discontinuation. Summaries of AEs were presented separately for the Double-Blind and Open-Label Extension Phases.
Laboratory data were analyzed using descriptive summary statistics and changes from baseline. Categorical safety data were analyzed using frequency tables and, if applicable, shift tables. Vital signs were listed by subjects and summarized by treatment.

[4] = tested on: healthy Japanese male subjects; settings: cited from earlier work
[5] = tested on: Japanese male subjects with AD; settings: ointment 0.01% to 0.2%; cited from earlier work
[6] = tested on: adults with mild to moderate AD; settings: 0.2% ointment BID, 4 weeks; cited from earlier work
[7] = tested on: pediatric subjects aged 2 to 15 years with mild to moderate AD; settings: 0.05% and 0.2% ointment for 2 weeks; cited from earlier work
[8] = single dermal application; stripped skin; non-fasted male rats; cited from earlier work

Compound: CNc1nc(-c2cccc(NC(=O)c3ccc(C(=O)O)cc3)c2)c2cc(OC)c(OC)cc2n1 [Formulation M11, 4-((3-(6,7-dimethoxy-2-(methylamino)quinazolin-4-yl)phenyl)carbamoyl)benzoic acid]
- % bias ([1]; Bench-top, after 7 days at RT, HQC (160 ng/mL)): 2.5%
- % bias ([1]; Bench-top, after 7 days at RT, LQC (3 ng/mL)): 6.0%
- % bias ([1]; In processed samples, after 85 h at 4° C., HQC (160 ng/mL)): 0.2%
- % bias ([1]; In processed samples, after 85 h at 4° C., LQC (1 ng/mL)): 5.9%
- % bias ([1]; Long-term, after 160 days at RT, HQC (160 ng/mL)): 9.4%
- % bias ([1]; Long-term, after 160 days at RT, LQC (3 ng/mL)): 0.3%
- % bias ([1]; Long-term, after 160 days below −15° C., HQC (160 ng/mL)): −1.3%
- % bias ([1]; Long-term, after 160 days below −15° C., LQC (3 ng/mL)): −1.3%
- % bias ([1]; Under high humidity, after 7 days at humidity 80-84%, HQC (160 ng/mL)): −12.5%
- % bias ([1]; Under high humidity, after 7 days at humidity 80-84%, LQC (3 ng/mL)): −2.3%
- maximum level in blood (DBS) [2]: below the LLOQ

Compound: CNc1nc(-c2cccc(NC(=O)c3ccc(C(=O)OC)cc3)c2)c2cc(OC)c(OC)cc2n1 [RVT-501, methyl N-[3-(6,7-dimethoxy-2-methylaminoquinazolin-4-yl)phenyl]terephthalamic acid]
- subjects with study-drug-related mild application site pruritus ([3]; Double-Blind Phase): 6.1%
- safety and tolerability ([3]; human, in vivo): generally safe and well tolerated
- subjects who experienced SAE (all deemed not related) ([3]; human, in vivo): two
- maximum level in blood (DBS) [2]: 1.65 ng/mL
- skin or systemic AEs ([4]; 0.01%-0.2% ointment QD or BID up to 11 days, patch/photopatch): No significant skin or systemic AEs
- skin irritation, adverse events, laboratory values, vital signs, ECG, ophthalmological findings ([4]; ointment 0.01% to 0.2%): no clinically-significant findings
- skin irritation, adverse events, laboratory values, vital signs, ECG, ophthalmological findings [5]: no clinically-significant findings
- tolerability [6]: tolerability was good
- adverse events attributable to the investigational product [7]: no adverse events considered attributable to the investigational product
- radiolabelled RVT-501 in the skin application site 24 hours after administration, relative to levels after 30 minutes [8]: 75%

Source: patent publication US20210093637A1, “TOPICAL OINTMENT FORMULATIONS OF PDE-4 INHIBITOR AND THEIR USE IN TREATING SKIN CONDITIONS” (Dermavant Sciences GmbH, priority 2017, published 2021)
